Among the data in patent US11420958B2, “Aryl and heteroaryl substituted indole compounds” (BRISTOL-MYERS SQUIBB COMPANY, priority 2017, dated 2022) are IC50 values, retold here.

Some results are limits rather than exact numbers.

Holding throughout (format): cell-based
In one assay the target is human TLR7 (Homo sapiens (Human), UniProt Q9NYK1). Put plainly: TLR7 inhibition reporter assay (HEK-Blue, SEAP). Particulars: HEK-Blue cells overexpressing human TLR7, gardiquimod 7.5 μM stimulation. The method, boiled down: (§1)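 Percent inhibition of agonist-induced SEAP secretion was scored against DMSO-only and reference-inhibitor controls. Stimulation lasted 22 h at 37 °C following 30 min compound pre-exposure (0.05 nM–50 μM); ligands were gardiquimod 7.5 μM, R848 15.9 μM and ODN2006 5 nM for TLR7, 8 and 9.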
Sequence of human TLR7 (Q9NYK1 27-1049): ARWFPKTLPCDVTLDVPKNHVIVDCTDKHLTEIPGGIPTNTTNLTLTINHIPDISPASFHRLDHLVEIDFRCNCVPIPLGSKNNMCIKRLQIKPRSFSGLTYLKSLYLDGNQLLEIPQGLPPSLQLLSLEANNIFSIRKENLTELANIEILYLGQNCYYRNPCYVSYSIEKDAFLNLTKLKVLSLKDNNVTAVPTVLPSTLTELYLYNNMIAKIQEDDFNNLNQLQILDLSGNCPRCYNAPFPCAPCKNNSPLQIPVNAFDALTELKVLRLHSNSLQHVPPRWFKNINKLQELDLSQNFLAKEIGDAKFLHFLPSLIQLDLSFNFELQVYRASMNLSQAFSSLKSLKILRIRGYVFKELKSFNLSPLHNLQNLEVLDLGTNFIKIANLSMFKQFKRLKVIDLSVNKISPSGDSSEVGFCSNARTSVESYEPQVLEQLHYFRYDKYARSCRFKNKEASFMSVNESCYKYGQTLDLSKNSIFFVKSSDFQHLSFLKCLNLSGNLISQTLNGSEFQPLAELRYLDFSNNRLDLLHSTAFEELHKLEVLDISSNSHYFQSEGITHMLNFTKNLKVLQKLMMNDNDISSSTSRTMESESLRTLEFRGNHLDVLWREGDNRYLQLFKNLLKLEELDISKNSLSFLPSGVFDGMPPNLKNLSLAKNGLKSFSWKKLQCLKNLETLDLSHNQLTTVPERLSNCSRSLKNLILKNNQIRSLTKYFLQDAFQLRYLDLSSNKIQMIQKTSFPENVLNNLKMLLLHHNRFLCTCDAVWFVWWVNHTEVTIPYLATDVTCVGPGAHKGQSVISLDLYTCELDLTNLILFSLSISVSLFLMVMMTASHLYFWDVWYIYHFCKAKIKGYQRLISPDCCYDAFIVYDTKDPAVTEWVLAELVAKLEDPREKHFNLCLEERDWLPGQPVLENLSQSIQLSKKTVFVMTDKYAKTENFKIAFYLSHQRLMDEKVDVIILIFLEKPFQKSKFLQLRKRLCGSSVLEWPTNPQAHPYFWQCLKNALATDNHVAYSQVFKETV
On the technique in general: A reporter such as luciferase makes a cellular process visible.

In a further assay the target is human TLR9 (Homo sapiens (Human), UniProt Q9NR96). Description: TLR9 inhibition reporter assay (HEK-Blue, SEAP). The conditions noted are these: HEK-Blue cells overexpressing human TLR9, ODN2006 5 nM stimulation. An outline of the steps:
as §1

The target in a further assay is human TLR8 (Homo sapiens (Human), UniProt Q9NR97). Description: TLR8 inhibition reporter assay (HEK-Blue, SEAP). Particulars: HEK-Blue cells overexpressing human TLR8, R848 15.9 μM stimulation. The method, boiled down:
as §1

Sequence of human TLR8 (Q9NR97 27-1041): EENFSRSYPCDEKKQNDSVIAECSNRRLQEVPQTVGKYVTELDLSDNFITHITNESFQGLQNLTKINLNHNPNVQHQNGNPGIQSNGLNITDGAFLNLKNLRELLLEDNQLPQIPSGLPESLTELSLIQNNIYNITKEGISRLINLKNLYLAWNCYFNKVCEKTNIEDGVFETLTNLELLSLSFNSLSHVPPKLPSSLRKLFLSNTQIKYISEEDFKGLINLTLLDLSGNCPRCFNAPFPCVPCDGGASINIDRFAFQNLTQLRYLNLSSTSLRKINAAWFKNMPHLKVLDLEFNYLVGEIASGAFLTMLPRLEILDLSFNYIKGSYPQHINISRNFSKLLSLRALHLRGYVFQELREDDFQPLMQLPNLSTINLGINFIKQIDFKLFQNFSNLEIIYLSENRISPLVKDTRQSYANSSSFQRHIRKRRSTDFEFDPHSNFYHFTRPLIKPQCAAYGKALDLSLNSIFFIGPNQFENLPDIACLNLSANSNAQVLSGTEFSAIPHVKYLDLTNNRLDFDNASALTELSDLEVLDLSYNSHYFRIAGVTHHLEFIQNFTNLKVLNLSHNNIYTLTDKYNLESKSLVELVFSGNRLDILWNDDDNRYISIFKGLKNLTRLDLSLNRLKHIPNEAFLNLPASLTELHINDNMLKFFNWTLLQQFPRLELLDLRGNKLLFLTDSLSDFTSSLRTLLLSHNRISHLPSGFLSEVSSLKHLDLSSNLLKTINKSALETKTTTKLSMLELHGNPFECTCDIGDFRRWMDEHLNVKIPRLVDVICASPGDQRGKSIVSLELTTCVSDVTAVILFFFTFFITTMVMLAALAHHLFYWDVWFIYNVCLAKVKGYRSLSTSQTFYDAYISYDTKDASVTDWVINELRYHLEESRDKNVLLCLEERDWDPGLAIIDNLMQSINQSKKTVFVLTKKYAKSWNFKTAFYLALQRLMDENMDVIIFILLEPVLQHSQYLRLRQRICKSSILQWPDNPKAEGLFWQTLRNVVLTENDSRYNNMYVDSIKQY
Sequence of human TLR9 (Q9NR96 26-1032): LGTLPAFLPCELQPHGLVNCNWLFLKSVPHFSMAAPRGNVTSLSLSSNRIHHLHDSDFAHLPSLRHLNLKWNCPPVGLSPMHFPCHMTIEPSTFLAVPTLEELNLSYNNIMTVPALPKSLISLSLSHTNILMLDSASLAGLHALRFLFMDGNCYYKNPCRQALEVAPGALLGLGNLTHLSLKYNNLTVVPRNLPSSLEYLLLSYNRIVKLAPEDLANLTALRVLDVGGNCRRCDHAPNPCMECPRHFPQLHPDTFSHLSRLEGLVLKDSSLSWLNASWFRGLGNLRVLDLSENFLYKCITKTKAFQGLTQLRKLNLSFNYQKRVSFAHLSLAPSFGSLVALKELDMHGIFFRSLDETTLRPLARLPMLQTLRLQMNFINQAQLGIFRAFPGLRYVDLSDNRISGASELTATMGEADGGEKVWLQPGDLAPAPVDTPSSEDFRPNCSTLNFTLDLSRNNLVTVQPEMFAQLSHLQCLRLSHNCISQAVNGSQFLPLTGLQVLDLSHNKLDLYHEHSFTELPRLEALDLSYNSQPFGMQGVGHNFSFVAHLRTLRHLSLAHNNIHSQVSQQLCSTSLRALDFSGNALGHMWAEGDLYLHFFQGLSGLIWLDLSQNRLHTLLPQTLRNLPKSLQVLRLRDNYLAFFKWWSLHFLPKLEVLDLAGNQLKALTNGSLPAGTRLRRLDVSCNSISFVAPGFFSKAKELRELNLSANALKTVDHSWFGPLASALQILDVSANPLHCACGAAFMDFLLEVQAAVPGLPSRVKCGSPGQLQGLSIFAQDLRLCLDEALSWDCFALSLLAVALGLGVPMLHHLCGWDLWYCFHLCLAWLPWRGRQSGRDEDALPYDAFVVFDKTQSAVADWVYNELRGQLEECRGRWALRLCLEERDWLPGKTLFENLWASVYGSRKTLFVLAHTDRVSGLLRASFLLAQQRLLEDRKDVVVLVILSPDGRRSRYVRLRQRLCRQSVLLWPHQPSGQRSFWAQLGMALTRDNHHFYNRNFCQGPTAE

As usually defined, the IC50 is the concentration at which inhibition is half-maximal. On to `Cc1cc(-c2[nH]c3ccc(-c4ccc(N5CCN(C(C)C)CC5)nc4)cc3c2C(C)C)cc(C)n1` [Example 306, 2-(2,6-dimethylpyridin-4-yl)-3-isopropyl-5-(6-(4-isopropylpiperazin-1-yl)pyridin-3-yl)-1H-indole], for which the IC50 turned out to be 4.8 nM on human TLR7, 289 nM at human TLR9 and 4.8 nM against human TLR8.
On to `Cc1cc(-c2[nH]c3ccc(-c4cnc(N)cn4)cc3c2C(C)C)cc(C)n1` [Example 307, 5-(2-(2,6-dimethylpyridin-4-yl)-3-isopropyl-1H-indol-5-yl)pyrazin-2-amine], for which the IC50 on human TLR7 came to 11 nM; at human TLR9, 21100 nM; against human TLR8 it was 18 nM.
With `Cc1cc(-c2[nH]c3ccc(-c4nc5c(s4)CNCC5)cc3c2C(C)C)cc(C)n1` [Example 308, 2-(2-(2,6-dimethylpyridin-4-yl)-3-isopropyl-1H-indol-5-yl)-4,5,6,7-tetrahydrothiazolo[5,4-c]pyridine], the IC50 against human TLR7 was determined as 2.6 nM; against human TLR9 it was 365 nM; on human TLR8, 0.5 nM.
The like results for `Cc1cc(-c2[nH]c3ccc(-c4nc5c(s4)CN(CC(=O)N(C)C)CC5)cc3c2C(C)C)cc(C)n1` [Example 309, 2-(2-(2-(2,6-dimethylpyridin-4-yl)-3-isopropyl-1H-indol-5-yl)-6,7-dihydrothiazolo[5,4-c]pyridin-5(4H)-yl)-N,N-dimethylacetamide] were, in that order, 24 nM, 5620 nM and 3.5 nM.
The like results for `Cc1cc(-c2[nH]c3ccc(-c4cc5c(s4)CN(CC(=O)N(C)C)CC5)cc3c2C(C)C)ccn1` [Example 311, 2-(2-(3-isopropyl-2-(2-methylpyridin-4-yl)-1H-indol-5-yl)-4,7-dihydrothieno[2,3-c]pyridin-6(5H)-yl)-N,N-dimethylacetamide] were, in that order, 146 nM, 3350 nM and 24 nM.
For `Cc1cc(-c2[nH]c3ccc(-c4nnc(C5CCCN(C(C)C)C5)o4)cc3c2C(C)C)ccn1` (stereo not drawn) [Example 312, 2-(3-isopropyl-2-(2-methylpyridin-4-yl)-1H-indol-5-yl)-5-(1-isopropylpiperidin-3-yl)-1,3,4-oxadiazole], in that order: 36 nM, 633 nM and 2.4 nM.
On to `Cc1cc(-c2[nH]c3ccc(-c4ccc(C(=O)N5CCC(N(C)C)CC5)cc4)cc3c2C(C)C)ccn1` [Example 313, (4-(dimethylamino)piperidin-1-yl)(4-(3-isopropyl-2-(2-methylpyridin-4-yl)-1H-indol-5-yl)phenyl)methanone], for which the results for the IC50 at human TLR7, on human TLR9 and on human TLR8 were 13 nM, 326 nM and 4.7 nM, respectively.
In the case of `Cc1cc(-c2[nH]c3ccc(-c4nnc(C5CCCN(C(C)C)C5)o4)cc3c2CC(F)F)cc(C)n1` (stereo not drawn) [Example 314, 2-(3-(2,2-difluoroethyl)-2-(2,6-dimethylpyridin-4-yl)-1H-indol-5-yl)-5-(1-isopropylpiperidin-3-yl)-1,3,4-oxadiazole], the IC50 against human TLR7 is 43 nM; on human TLR9, 106 nM; at human TLR8 it was 11 nM.
Consider `CNC(=O)CN1CCc2cc(-c3ccc4[nH]c(-c5ccnc(C)c5)c(C(C)C)c4c3)sc2C1` [Example 315, 2-(2-(3-isopropyl-2-(2-methylpyridin-4-yl)-1H-indol-5-yl)-4,7-dihydrothieno[2,3-c]pyridin-6(5H)-yl)-N-methylacetamide], for which the values for the IC50 against human TLR7, against human TLR9 and against human TLR8 were 93 nM, 47400 nM and 17 nM, respectively.
The like results for `CNC(=O)c1ccc(-c2ccc3[nH]c(-c4cc(C)nc(C)c4)c(C(C)C)c3c2)cn1` [Example 316, 5-(2-(2,6-dimethylpyridin-4-yl)-3-isopropyl-1H-indol-5-yl)-N-methylpicolinamide] were, in that order, 28 nM, over 50000 nM and 65 nM.
For `Cc1cc(-c2[nH]c3ccc(-c4ccc(C(N)=O)nc4)cc3c2C(C)C)cc(C)n1` [Example 317, 5-(2-(2,6-dimethylpyridin-4-yl)-3-isopropyl-1H-indol-5-yl)picolinamide], in that order: 7.7 nM, over 50000 nM and 26 nM.
For `Cc1cc(-c2[nH]c3ccc(-c4nnc(N)o4)cc3c2C(C)C)cc(C)n1` [Example 318, 5-(2-(2,6-dimethylpyridin-4-yl)-3-isopropyl-1H-indol-5-yl)-1,3,4-oxadiazol-2-amine], in that order: 30 nM, 6360 nM and 34 nM.
On to `Cc1cc(-c2[nH]c3ccc(-c4ccnc(N5CCN(C)CC5)c4)cc3c2C(C)C)cc(C)n1` [Example 319, 2-(2,6-dimethylpyridin-4-yl)-3-isopropyl-5-(2-(4-methylpiperazin-1-yl)pyridin-4-yl)-1H-indole], for which the values for the IC50 against human TLR7, on human TLR9 and at human TLR8 were 7.1 nM, 517 nM and 9.7 nM, respectively.
For the compound `Cc1cc(-c2[nH]c3ccc(-c4ccnc(N5CCNCC5)c4)cc3c2C(C)C)cc(C)n1` [Example 320, 2-(2,6-dimethylpyridin-4-yl)-3-isopropyl-5-(2-(piperazin-1-yl)pyridin-4-yl)-1H-indole], the IC50 on human TLR7 amounted to 71 nM; on human TLR9, 2970 nM; on human TLR8, 86 nM.
In the case of `Cc1cc(-c2[nH]c3ccc(-c4ccc(C(=O)N5CCC(NC(C)C)CC5)cc4)cc3c2C(C)C)ccn1` [Example 321, (4-(3-isopropyl-2-(2-methylpyridin-4-yl)-1H-indol-5-yl)phenyl)(4-(isopropylamino)piperidin-1-yl)methanone], the IC50 amounted to 37 nM against human TLR7, 739 nM at human TLR9 and 17 nM against human TLR8.
For `Cc1cc(-c2[nH]c3ccc(-c4ccc(CO)nc4)cc3c2C(C)C)cc(C)n1` [Example 322, (5-(2-(2,6-dimethylpyridin-4-yl)-3-isopropyl-1H-indol-5-yl)pyridin-2-yl)methanol], in that order: 13 nM, 45700 nM and 27 nM.
The like results for `Cc1cc(-c2[nH]c3ccc(-c4nnc(C5CCCNC5)[nH]4)cc3c2C(C)C)cc(C)n1` (stereo not drawn) [Example 323, 2-(2,6-dimethylpyridin-4-yl)-3-isopropyl-5-(5-(piperidin-3-yl)-4H-1,2,4-triazol-3-yl)-1H-indole] were, in that order, 13 nM, 322 nM and 10 nM.
On to `Cc1cc(-c2[nH]c3ccc(-c4cc5c(s4)CNCC5)cc3c2C(C)C)cc(C)n1` [Example 324, 2-(2-(2,6-dimethylpyridin-4-yl)-3-isopropyl-1H-indol-5-yl)-4,5,6,7-tetrahydrothieno[2,3-c]pyridine], for which the figures for the IC50 on human TLR7, at human TLR9 and against human TLR8 were 2.6 nM, 438 nM and 1.2 nM, respectively.
For `Cc1cc(-c2[nH]c3ccc(-c4cc5c(s4)CN(C(C)C)CC5)cc3c2C(C)C)cc(C)n1` [Example 325, 2-(2-(2,6-dimethylpyridin-4-yl)-3-isopropyl-1H-indol-5-yl)-6-isopropyl-4,5,6,7-tetrahydrothieno[2,3-c]pyridine], in that order: 11 nM, 282 nM and 0.5 nM.
